From article PMC6024615, “Effect of Biliary Drainage on the Toxicity and Toxicokinetics of Amanita exitialis in Beagles” (Toxins, 2018)
Read-outs that look alike come from different tables or passages of the source.

Columns and labels:
[1] = Peptide toxins in the blood / toxicokinetics in beagles with biliary drainage; type: in vivo, beagle dogs; set-up: Dose normalized AUC (0–∞) / Dose normalized Cmax: unit not given here; conditions: for T1/2: UPLC-ESI-MS/MS
Method: The study was approved by National Institute of Occupational Health and Poison Control review board for animal experiments. Twenty-four male beagles (age, 8–10 months; weight, 10 ± 1 kg) were obtained from Beijing Institute of Xieerxin Biology Resource (Beijing, China). They were randomly divided into four groups of six animals each: control, biliary drainage, and 20 and 60 mg/kg with biliary drainage groups. The biliary drainage operation was conducted in all groups barring the control group. The dogs were dressed in homemade underwear, coats, and Elizabeth circles for a week to ensure pre-experimental acclimatization (Figure S8a–c). After determining the baseline values for biochemical indicators, the dogs were fasted for 24 h but received water ad libitum. They were anesthetized by intravenous administration of pentobarbital sodium (3%, 1 mL/kg) during the surgery. A temperature of 38–39 °C was maintained with a warming mat. After skin preservation and sterilization, the abdominal cavity was opened through the central abdomen. The abdomen was explored and blunt dissection of the common bile duct was performed (Figure S8d). The common bile duct and its branches were ligated from the intestinal side. A 7.0-Fr drainage catheter (COOK, Bloomington, IN, USA) was percutaneously inserted into the gallbladder, and a medical drainage bag was connected to the drainage catheter coming out of the abdominal cavity. Each opened layer, including the peritoneum, abdominal wall muscle, and skin, was closed with suture. The operative incision was protected with sterile gauze and a bandage, and the dogs were dressed in homemade underwear, coats, and Elizabeth circles. The drainage bag was placed in the pocket of the coat (Figure S8e). After the anesthetic wore off, the dogs were placed in cages, and food and water were provided ad libitum. The operative incision was sterilized with iodophor twice a day until stitches were removed six days after surgery. The drainage bag was replaced every day. On the eighth day after surgery, the 20 and 60 mg/kg with biliary drainage groups were orally administered a lyophilized powder of Amanita exitialis in starch capsules. In control and bile drainage group, the beagle dogs were fed with empty capsules. Immediately after dosing, the animals were placed in their cages, and food and water were provided ad libitum. Dogs were sacrificed with an overdose of sodium pentobarbital at the end of the experiment. All procedures were performed according to the ethical standards of the National Institutes of Health Guide for Animal Welfare and approved by the Institutional Animal Care and Use Committee (EAWE-2017-005).
Peptide toxins in blood and urine samples were analyzed as described previously. Bile samples from Days 0–1, Days 1–2, Days 2–3, and Days 3–4 were collected and stored in medical drainage bags and the bile volume was recorded. Plasma and urine samples were stored at 2–8 °C until analysis for peptide toxins.
UPLC and MS/MS parameters were as described in our previous study. The limit of detection and limit of quantitation of each toxin in the bile were 0.03 mg/kg and 0.5 mg/kg, respectively.
Toxicokinetic parameters were described in our previous study. Measurement data are reported as mean ± standard deviation values and enumeration data are reported as percentage (%). […] SPSS 22.0 (IBM Corporation, Armonk, NY, USA, 2015) was used for statistical analysis. The criterion for statistical significance was p ≤ 0.05. Except for the biliary drainage operation, the animals and methods in our present study are in accordance with our previously published study. Thus, by directly comparing the data from this study with those from our published studies on Amanita exitialis-exposed beagles without biliary drainage, we can evaluate the impact of biliary drainage on the toxicity and toxicokinetics of Amanita exitialis in beagles.

[2] = cited from earlier work
Method: The difference in detectable time in the urine can be explained by the low level of internal exposure (amatoxins in the blood). […] The daily amounts of peptide toxins excreted in urine in beagles without biliary drainage(mg). Time after α-Amanitin β-Amanitin Phallacidin ingestion 20 mg/kg 60 mg/kg 20 mg/kg 60 mg/kg 20 mg/kg 60 mg/kg group group group group group group 0-1d 0.0379 0.0593 0.0156 0.0251 0.0035 0.0088 (97.9%) (92.8%) (99.9%) (94.7%) (94.2%) (76%) 1-2d 0.0388 0.0618 0.01567 0.0255 0.0037 0.0110 (99.995%) (97.5%) (100%) (96.2%) (100%) (93%) 2-3d 0.0002 0.0626 0 0.0260 0 0.0115 (100%) (99.4%) (100%) (98.2%) (100%) (97.3%) 3-4d 0 0.063 ...

[3] = 20 mg/kg Amanita exitialis oral, biliary drainage, plasma, mean ± SD
[4] = 60 mg/kg Amanita exitialis oral, biliary drainage, plasma, mean ± SD

CC[C@H](C)[C@@H]1NC(=O)CNC(=O)[C@@H]2Cc3c([nH]c4cc(O)ccc34)[S@+]([O-])C[C@H](NC(=O)CNC1=O)C(=O)N[C@@H](CC(N)=O)C(=O)N1C[C@H](O)C[C@H]1C(=O)N[C@@H]([C@@H](C)[C@@H](O)CO)C(=O)N2 [α-amanitin]
detection rate of peptide toxins in blood ([1]; 0 h after ingestion, 60 mg/kg with biliary drainage group): 0%
T1/2 [1, 3]: 1.08 ± 0.76 h
AUC (0–∞) [1, 3]: 5.36 ± 3.17 µg·h/L
CL/F [1, 3]: 14.2 ± 7.17 mL/min/kg
Cmax [1, 3]: 1.73 ± 0.58 µg/L
Dose normalized AUC (0–∞) [1, 3]: 138.9 ± 82.1
Dose normalized Cmax [1, 3]: 44 ± 15.1
MRT (0–∞) [1, 3]: 3.55 ± 0.8 h
Tmax [1, 3]: 1.38 ± 0.48 h
Vz/F [1, 3]: 1.07 ± 0.31 L/kg
T1/2 [1, 4]: 1.2 ± 0.58 h
AUC (0–∞) [1, 4]: 31.99 ± 9.65 ^a,* µg/L × h
CL/F [1, 4]: 6 ± 1.83 mL/min/kg
Cmax [1, 4]: 12.25 ± 3.54 ^a,* µg/L
Dose normalized AUC (0–∞) [1, 4]: 238.2 ± 83.9
Dose normalized Cmax [1, 4]: 86.1 ± 30.8
MRT (0–∞) [1, 4]: 2.87 ± 0.43 h
Tmax [1, 4]: 1.13 ± 0.25 h
detection rate of peptide toxins in blood ([1]; 0.25 h after ingestion, 20 mg/kg with biliary drainage group): 0%
detection rate of peptide toxins in blood ([1]; 0.25 h after ingestion, 60 mg/kg with biliary drainage group): 0%
detection rate of peptide toxins in blood ([1]; 0.5 h after ingestion, 20 mg/kg with biliary drainage group): 33%
detection rate of peptide toxins in blood ([1]; 0.5 h after ingestion, 60 mg/kg with biliary drainage group): 33%
detection rate of peptide toxins in blood ([1]; 1 h after ingestion, 20 mg/kg with biliary drainage group): 100%
detection rate of peptide toxins in blood ([1]; 1 h after ingestion, 60 mg/kg with biliary drainage group): 100%
detection rate of peptide toxins in blood ([1]; 1.5 h after ingestion, 20 mg/kg with biliary drainage group): 100%
detection rate of peptide toxins in blood ([1]; 1.5 h after ingestion, 60 mg/kg with biliary drainage group): 100%
detection rate of peptide toxins in blood ([1]; 2 h after ingestion, 20 mg/kg with biliary drainage group): 100%
detection rate of peptide toxins in blood ([1]; 2 h after ingestion, 60 mg/kg with biliary drainage group): 100%
detection rate of peptide toxins in blood ([1]; 3 h after ingestion, 20 mg/kg with biliary drainage group): 100%
detection rate of peptide toxins in blood ([1]; 3 h after ingestion, 60 mg/kg with biliary drainage group): 100%
detection rate of peptide toxins in blood ([1]; 4 h after ingestion, 20 mg/kg with biliary drainage group): 100%
detection rate of peptide toxins in blood ([1]; 4 h after ingestion, 60 mg/kg with biliary drainage group): 100%
detection rate of peptide toxins in blood ([1]; 5 h after ingestion, 20 mg/kg with biliary drainage group): 100%
detection rate of peptide toxins in blood ([1]; 5 h after ingestion, 60 mg/kg with biliary drainage group): 100%
detection rate of peptide toxins in blood ([1]; 6 h after ingestion, 20 mg/kg with biliary drainage group): 100%
detection rate of peptide toxins in blood ([1]; 6 h after ingestion, 60 mg/kg with biliary drainage group): 100%
detection rate of peptide toxins in blood ([1]; 8 h after ingestion, 20 mg/kg with biliary drainage group): 50%
detection rate of peptide toxins in blood ([1]; 8 h after ingestion, 60 mg/kg with biliary drainage group): 50%
detection rate of peptide toxins in blood ([1]; 10 h after ingestion, 20 mg/kg with biliary drainage group): 50%
detection rate of peptide toxins in blood ([1]; 10 h after ingestion, 60 mg/kg with biliary drainage group): 50%
detection rate of peptide toxins in blood ([1]; 12 h after ingestion, 20 mg/kg with biliary drainage group): 17%
detection rate of peptide toxins in blood ([1]; 12 h after ingestion, 60 mg/kg with biliary drainage group): 33%
detection rate of peptide toxins in blood ([1]; 24 h after ingestion, 20 mg/kg with biliary drainage group): 0%
detection rate of peptide toxins in blood ([1]; 24 h after ingestion, 60 mg/kg with biliary drainage group): 0%
detection rate of peptide toxins in blood ([1]; 36 h after ingestion, 20 mg/kg with biliary drainage group): 0%
detection rate of peptide toxins in blood ([1]; 36 h after ingestion, 60 mg/kg with biliary drainage group): 0%
detection rate of peptide toxins in blood ([1]; 48 h after ingestion, 20 mg/kg with biliary drainage group): 0%
detection rate of peptide toxins in blood ([1]; 48 h after ingestion, 60 mg/kg with biliary drainage group): 0%
time at which toxins were detected in plasma after ingestion ([1]; beagles with biliary drainage, oral Amanita exitialis): 30 min
Vd/F ([1]; male, beagle, dog, 60 mg/kg Amanita exitialis oral, biliary drainage, plasma, mean ± SD, read-out: Vz/F): 0.68 ± 0.48 L/kg
daily amount excreted in urine, without biliary drainage ([2]; 0-1d, 20 mg/kg group): 0.0379 mg
percentage in parentheses, urine, without biliary drainage ([2]; 0-1d, 20 mg/kg group): 97.9%
daily amount excreted in urine, without biliary drainage ([2]; 0-1d, 60 mg/kg group): 0.0593 mg
percentage in parentheses, urine, without biliary drainage ([2]; 0-1d, 60 mg/kg group): 92.8%
Accumulative amount excreted in urine, without biliary drainage ([2]; 20 mg/kg group): 0.039 mg
percentage in parentheses, Accumulative amount, urine, without biliary drainage ([2]; 20 mg/kg group): 100%
Accumulative amount excreted in urine, without biliary drainage ([2]; 20 mg/kg group, listed as α-Amanitin): 0.0390 mg
Accumulative amount excreted in urine, without biliary drainage ([2]; 60 mg/kg group): 0.0630 mg
percentage in parentheses, Accumulative amount, urine, without biliary drainage ([2]; 60 mg/kg group): 100%
percentage in parentheses, urine, without biliary drainage ([2]; 1-2d, 20 mg/kg group): 99.995%
daily amount excreted in urine, without biliary drainage ([2]; 1-2d, 60 mg/kg group): 0.0618 mg
percentage in parentheses, urine, without biliary drainage ([2]; 1-2d, 60 mg/kg group): 97.5%
daily amount excreted in urine, without biliary drainage ([2]; 2-3d, 20 mg/kg group): 0.0002 mg
percentage in parentheses, urine, without biliary drainage ([2]; 2-3d, 20 mg/kg group): 100%
daily amount excreted in urine, without biliary drainage ([2]; 2-3d, 60 mg/kg group): 0.0626 mg
percentage in parentheses, urine, without biliary drainage ([2]; 2-3d, 60 mg/kg group): 99.4%
daily amount excreted in urine, without biliary drainage ([2]; 3-4d, 20 mg/kg group): 0 mg
percentage in parentheses, urine, without biliary drainage ([2]; 3-4d, 20 mg/kg group): 100%
daily amount excreted in urine, without biliary drainage ([2]; 3-4d, 60 mg/kg group): 0.0630 mg
percentage in parentheses, urine, without biliary drainage ([2]; 3-4d, 60 mg/kg group): 100%
